Measurements published in US20210052566A1, “METHODS FOR TREATING HEPATITIS B VIRUS (HBV) INFECTION” (INSERM (INSTITUT NATIONAL DE LA SANTÉ ET DE LA RECHERCHE …, priority 2018, published 2021).

Tests used:
SRSF1 = SRSF1 (Homo sapiens, UniProt Q07955); details: cited from earlier work
HDV genotype 1 = assay: Hepatitis delta virus replication in infected dHepaRG cells (intracellular HDV RNA, RTqPCR); type: cell-based; details: HDV MOI 10 vge/cell, 10 microM three times post-infection
Protocol: (§1) FIG. 1. Experimental outlines. Treatment schemes: (a) Treatments in pre-infection: dHepaRG cells were treated for 24 h (at day −1) with 100 nM of PreS1 peptide (PreS1-pep) or 10 μM of 1C8, or untreated (NT). At day 0, cells were inoculated with HBV (MOI=250) or with HDV (MOI=25) in the presence of drugs for 24 h. For the tenofovir control (TDF at 10 μM), cells were treated at day 1 and 4 post-infection. Supernatant and cells were harvested at day 7 post-infection. (b) Treatments in post-infection: dHepaRG cells were inoculated with HBV (MOI=250) or with HDV (MOI=25). At days 4, 7 and 9 post infection, cells were treated with TDF 10 μM, lamivudine (3TC) at 10 μM, 1C8 10 μM or untreated (NT). Supernatant and cells were harvested at day 11 postinfection.
FIG. 5. […] B) HBs and HBe secreted antigens in supernatant were quantified by ELISA, whereas HBV DNA contained in virions was quantified by qPCR after viral nucleic acid extraction from supernatant. C) Intracellular HDV RNA was quantified by RTqPCR after total RNA extraction from cells. D) Viability was monitored in 1C8-treated (or control treated; puromycin is a positive toxic molecule) cells by CellTiter-Glo® luminescent cell viability assay. […] Statistics were done by two-tailed Mann-Whitney test, with following significativity: *P<0.05, **P<0.01, ***P<0.001, ****P<0.0001. nd=not determined

HBV genotype D = assay: De novo establishment of HBV infection/cccDNA in naive dHepaRG, genotype D (treatment before and during inoculation); type: cell-based, Hepatitis B virus
Protocol: as §1
FIG. 7. Effect of 1C8 on de novo establishment of ccDNA in dHepaRG (genotype D). […] B) HBs and HBe secreted antigens in supernatant were quantiUied by ELISA, whereas HBV DNA contained in virions was quantified by qPCR after viral nucleic acid extraction from supernatant. […] Statistics were done by two-tailed Mann-Whitney test, with following signiUicativity: *P<0.05, **P<0.01, ***P<0.001, ****P<0.0001. nd=not determined.
Human liver progenitor HepaRG cells were cultured in Williams medium (ThermoFisher) supplemented with 10% of FBS (Perbio), Penicillin/Streptomycin (500 U/mL), glutamine (2 mM), hydrocortisone Upjohn (2.5 mg/L; Serb laboratory), insulin (5 mg/L; Sigma Aldrich). […] The multiplicity of infection (MOI; expressed as virus genome equivalent/cell) is indicated in the figure legends, but was of 100 vge/cell if not precised.
From cell culture supernatants, secreted HBe and HBs antigens were quantified by ELISA, using a chemiluminescence immunoassay kit (Autobio, China) following manufacturer's instructions. […]
A HBV standard was used for quantification of extracellular viral DNA and RNA. For cccDNA quantification total DNA was digested by T5 exonuclease (New England Biolabs) for 6 hours at 37° C. then submitted to qPCR using Taqman Fast Advanced Master Mix (Life Technologies). […]

Chain of SRSF1 (Q07955 whole entry, species assumed): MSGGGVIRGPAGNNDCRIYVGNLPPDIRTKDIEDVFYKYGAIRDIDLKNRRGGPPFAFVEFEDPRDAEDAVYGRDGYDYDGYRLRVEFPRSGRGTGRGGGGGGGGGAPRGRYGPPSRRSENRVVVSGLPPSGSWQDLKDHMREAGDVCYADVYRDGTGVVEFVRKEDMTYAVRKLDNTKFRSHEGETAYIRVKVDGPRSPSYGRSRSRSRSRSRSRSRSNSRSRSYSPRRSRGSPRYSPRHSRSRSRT

Cn1ccc(=O)c(C(=O)Nc2nsc3ccc([N+](=O)[O-])cc23)c1 [1C8, 4-pyridinonebenzisothiazole carboxamide]
inhibition of SRSF1 (SRSF1): does not inhibit
inhibition of replication of hepatitis delta virus (HDV genotype 1): not capable to inhibit
inhibition at 10 µM (HBV genotype D; Hepatitis B virus, dHepaRG treated before and during HBV inoculation, 10 microM): 50%
other viral markers (intracellular RNAs, HBeAg, HBsAg), genotype D (HBV genotype D; dHepaRG treated before and during inoculation, 10 microM): also reduced
inhibition of cccDNA establishment compared with controls (entry inhibitor, TDF) (HBV genotype D; dHepaRG treated before and during inoculation, 1C8 and TDF 10 microM, Entry Inh. 100 nM, stated for genotypes D and C together): lower than that obtained with an entry inhibitor, but higher than that obtained with a NUC
